Test results as given in article PMC8147781, “Discovery of Pyrrolidine-2,3-diones as Novel Inhibitors of P. aeruginosa PBP3” (Antibiotics, 2021).
Values after ≈ are worked out from the molar mass of the structure shown. Values joined by “and” are separate entries in the source; they are usually repeats but may differ in a detail not shown here. Equal values may be shown once.

Legend:
[1] = biological target: T1, PBP3 of P. aeruginosa (PaPBP3) (Pseudomonas aeruginosa, UniProt G3XD46); test: FP-Bocillin FL competition assay; format: binding; conditions: 30 min preincubation before Bocillin FL, 37 °C; read-out: IC50 Determination with PaPBP3, FP-Bocillin FL Assay
T1 construct: P. aeruginosa PBP3 (amino acids 40 to 563); His-tag; made in house; host or cells: E. coli BL21 (DE3) Rosetta, plasmid pET41_PBP-3
T1 sequence (G3XD46 40-563): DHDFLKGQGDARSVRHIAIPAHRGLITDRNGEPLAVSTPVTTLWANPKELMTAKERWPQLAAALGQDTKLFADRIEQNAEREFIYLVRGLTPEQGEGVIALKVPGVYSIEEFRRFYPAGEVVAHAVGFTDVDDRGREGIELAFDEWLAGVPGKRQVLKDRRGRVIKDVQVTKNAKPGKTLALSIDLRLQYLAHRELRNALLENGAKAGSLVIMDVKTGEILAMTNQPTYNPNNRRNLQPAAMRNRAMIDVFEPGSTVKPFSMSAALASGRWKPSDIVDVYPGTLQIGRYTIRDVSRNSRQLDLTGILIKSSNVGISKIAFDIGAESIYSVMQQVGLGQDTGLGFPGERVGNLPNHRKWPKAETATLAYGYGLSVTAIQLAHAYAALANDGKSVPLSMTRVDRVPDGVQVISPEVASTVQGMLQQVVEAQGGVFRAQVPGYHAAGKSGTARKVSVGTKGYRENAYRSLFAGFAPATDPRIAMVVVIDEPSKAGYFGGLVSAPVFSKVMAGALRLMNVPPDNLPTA
Method: Bocillin FL is a fluorescent penicillin V derivate used as a competitor for PBP inhibitors.
Fluorescence polarisation (FP) experiments were carried out as described before. To determine the binding of Bocillin FL to PBP, 200 nM of ^PaPBP3 was incubated for 30 min with 100 nM of Bocillin FL (Thermo Fisher Scientific, Waltham, MA, USA). The fluorescence polarisation signal of free Bocillin FL was monitored in a Pherastar microplate reader (BMG Labtech, Ortenberg, Germany) in the polarisation mode with Ex/Em: 485/520 nm excitation and emission filters. Millipolarisation (mP) units were calculated using the MARS data analysis software v30.40.R2 (BMG Labtech, Ortenberg, Germany). All the experiments were done in Sorensen buffer at 37 °C using flat-bottom, black 96-well plates. […] Bocillin FL was diluted in Sorensen buffer and added to the reaction and directly measured for 30 min at 37 °C. The FP was continuously measured in the presence and absence of compound and enzyme. […] The estimated IC50 values were established by sigmoidal nonlinear regression, using Prims v.8 software.

[2] = test system: P. aeruginosa PAO1 (wild-type strain); test: MIC broth microdilution, P. aeruginosa PAO1; format: cell-based, Pseudomonas aeruginosa; conditions: wild-type strain, with 4 µg/mL PMBN
Text: (§1) The results presented above implied that seven pyrrolidine-2,3-dione derivatives inhibited the activity of ^PaPBP3 in vitro. Consequently, we were very interested in investigating the potential of these compounds to affect the growth of P. aeruginosa. Two P. aeruginosa bacterial strains (the wild-type PAO1 and the isogenic ΔmexB ΔmexX ΔmexCD-oprJ efflux pump mutant) were used to determine the MIC and the potential role of the main P. aeruginosa efflux systems in compound uptake. To increase the antibacterial sensitivity of the tested P. aeruginosa isolates to the potential inhibitors, we performed MIC experiments in the presence and absence of a sub-MIC concentration (4 µg/mL) of the outer membrane permeabilising polymyxin B nonapeptide (PMBN). […] Thus, we concluded that the physicochemical properties of the pyrrolidine-2,3-dione compounds were perhaps not yet favourable enough to cross the P. aeruginosa cell envelope without a permeabiliser because of their high hydrophobicity.
(§2) The wild-type P.aeruginosa PAO1 and the isogenic P. aeruginosa K2896 ΔmexBΔmexXYΔmexCD-oprJ isolates were used to determine the MIC in the presence and absence of PMBN [48].
(§3) MIC determination was performed via standard broth microdilution according to the Clinical & Laboratory Standards institute guidelines. Overnight colonies grown on BD-Columbia agar with 5% Sheep Blood (Becton Dickinson, Franklin Lakes, NJ, USA), were diluted in Mueller Hinton Broth 2 cation adjusted (MH+) medium (Thermo Fisher Scientific) to a concentration of 5 × 10^5 CFU/mL. Serial dilutions (1:2) of test compounds were incubated at 37 °C with 5 × 10^4 bacteria in a final volume of 100 μL. Sterile and growth controls in the presence of 1% DMSO and PMBN if the case, and the positive controls, aztreonam (AZT) and tigecycline (TIG) were included in the experiments (Table S4). The MICs were determined visually after 18 h at 37 °C and confirmed by the addition of 10% PrestoBlue (ThermoFisher Scientific) reagent according to the manufacture’s protocol. The fluorescence signal of PrestoBlue reagent was measured at Ex/Em: 550/595 nm after 30 min incubation at 37 °C using at a ClarioStar microplate reader (BMG Labtech). PrestoBlue reduction occurs in the presence of living cells and consequently turns red in colour and is highly fluorescent.

[3] = test system: P. aeruginosa K2896 ΔmexBΔmexXYΔmexCD-oprJ; test: MIC broth microdilution, P. aeruginosa K2896 efflux mutant; format: cell-based, Pseudomonas aeruginosa; conditions: ΔmexB; ΔmexX, ΔmexCD-oprJ, with 4 µg/mL PMBN
Text: as §1, §2, §3

E. coli Neumann = test: MIC broth microdilution, E. coli; format: cell-based; conditions: Escherichia coli; Table S3; read-out: MIC (µM) E. coli Neumann
Method: as §3

A. baumannii ATCC15308 = test: MIC broth microdilution, A. baumannii; format: cell-based; conditions: 10 µg/mL PMBN
Method: as §3

B. subtilis 168 = test: MIC broth microdilution, B. subtilis; format: cell-based; conditions: Bacillus subtilis, 168; Table S3
Method: as §3

[4] = biological target: T2, PaPBP3 coated on a CM5 chip (Pseudomonas aeruginosa, UniProt G3XD46); test: Surface plasmon resonance (SPR), steady-state analysis; format: binding; conditions: 25 °C
T2 construct: P. aeruginosa PBP3 (amino acids 40 to 563); His-tag; made in house; host or cells: E. coli BL21 (DE3) Rosetta, plasmid pET41_PBP-3
T2 sequence (G3XD46 40-563): as above
Method: Next, we confirmed the binding of the best inhibitors (analogues 34, 35, 40, 38 and 37) by surface plasmon resonance (SPR), using ^PaPBP3 coated on a CM5 chip as the ligand. The sensorgrams (Figure A1C and Figure A2C) indicated fast association and dissociation with all compounds tested. Dissociation constants (Kd) were determined via steady-state analysis using the maximum resonance signal obtained with a range of analyte concentrations.
SPR experiments were performed at 25 °C by using a Biacore T200 instrument from Cytiva (Marlborough, MA, USA). Purified ^PaPBP3 was coated on a CM5 chip, that was activated with EDC/NHS (1-ethyl-3-(3-dimethylaminopropyl) carbodiimide/N-hydroxysuccinimide) beforehand and blocked with ethanolamine after protein attachment. We achieved a protein amount of 11.820 RU. For every analyte, two concentration series between 3.25 µM and 200 µM were prepared in the running buffer (13 mM NaCl, 257 µM KCl, 171 µM KH2PO4, 950 µM Na2HPO4, 0.05% Tween-20 and 5% DMSO, pH 7.4) in a 96 well plate. Prior to the injection, the baseline was determined using running buffer for 300 s. Then, the analytes were then associated for 100 s and dissociated for 300 s with a flow rate of 30 µL/min. A 30 s washing step with 50% DMSO was used after every injection to regenerate the chip. In the final step, ten different DMSO concentrations ranging from 4.0% to 5.8% were used as the internal solvent correction. Steady state analysis was performed by using the internal Biacore software and figures were prepared with Prism v.8 using the points of one concentration series, respectively.

Compound	IC50 [1]	MIC (µM) against P. aeruginosa PAO1 [2] [µM]	MIC (µM) against P. aeruginosa K28926 [3] [µM]	MIC (E. coli Neumann) [µM]	MIC (µM) A. baumanii ATCC15308 (A. baumannii ATCC15308) [µM]	MIC (B. subtilis 168) [µM]	Kd [4]	Kd (µM) SPR [4]
O=C(C1=C(O)C(=O)N(Cc2cc3cnccc3[nH]2)C1c1ccc(Cl)cc1)c1ccc(Br)cc1 (centres unmarked) [Compound 36]	> 100 µM	>100	100 (≈ 52.3 µg/mL)	> 100	> 100	> 100		
O=C(C1=C(O)C(=O)N(Cc2cscn2)C1c1ccc(Cl)cc1)c1ccc(Br)cc1 (centres unmarked) [Compound 42]	> 100 µM	>100	>100	> 100	> 100	> 100		
CCNC1=C(C(=O)c2ccc(Br)cc2)C(c2ccc(Cl)cc2)N(Cc2cccc(F)c2)C1=O (centres unmarked) [Compound 43, 4-(4-bromobenzoyl)-5-(4-chlorophenyl)-3-(ethylamino)-1-[(3-fluorophenyl)methyl]-5H-pyrrol-2-one]	> 100 µM	>100	>100	> 100	> 100	> 100		
O=C(C1=C(O)C(=O)N(Cc2cc3ccccc3[nH]2)C1c1ccc(Cl)cc1)c1ccc(Br)cc1 (centres unmarked) [Compound 34, 4-(4-bromobenzoyl)-5-(4-chlorophenyl)-3-hydroxy-1-(1H-indol-2-ylmethyl)-5H-pyrrol-2-one]	4 ± 4 µM			> 100	> 100	25 (≈ 13 µg/mL)	6.4 µM and 6.44 µM	
CCNC1=C(C(=O)c2ccc(Br)cc2)C(c2ccc(Cl)cc2)N(Cc2c[nH]c3ccccc23)C1=O (centres unmarked) [Compound 45]	> 100 µM	>100	>100	> 100	> 100	> 100		
O=C(C1=C(O)C(=O)N(CCc2c[nH]c3ccccc23)C1c1ccc(Cl)cc1)c1ccc(Br)cc1 (centres unmarked) [Compound 40]	4 ± 2 µM			> 100	> 100	> 100	22.9 µM	
O=C(C1=C(N2CCOCC2)C(=O)N(Cc2cccc(F)c2)C1c1ccc(Cl)cc1)c1ccc(Br)cc1 (centres unmarked) [Compound 44, 4-(4-bromobenzoyl)-5-(4-chlorophenyl)-1-[(3-fluorophenyl)methyl]-3-(morpholin-4-yl)-5H-pyrrol-2-one]	> 100 µM	>100	>100	> 100	> 100	> 100		
O=C1NC(c2ccc(Cl)cc2)C(C(=O)c2ccc(Br)cc2)=C1O (centres unmarked) [Compound 32, 4-(4-bromobenzoyl)-5-(4-chlorophenyl)-3-hydroxy-1,5-dihydropyrrol-2-one]	> 100 µM	>100	>100	> 100	> 100	100 (≈ 39.3 µg/mL)		
O=C(C1=C(O)C(=O)N(Cc2cccc(F)c2)C1c1ccc(Cl)cc1)c1ccc(Br)cc1 (centres unmarked) [Compound 1]	7 ± 3 µM		12.5 (≈ 6.26 µg/mL)	> 100	> 100	> 100		
O=C(C1=C(O)C(=O)N(Cc2ccco2)C1c1ccc(Cl)cc1)c1ccc(Br)cc1 (centres unmarked) [Compound 41, 4-(4-bromobenzoyl)-5-(4-chlorophenyl)-1-(furan-2-ylmethyl)-3-hydroxy-5H-pyrrol-2-one]	> 100 µM		25 (≈ 11.8 µg/mL)	> 100	> 100	> 100		
O=C(C1=C(O)C(=O)N(CCc2cc3ccccc3[nH]2)C1c1ccc(Cl)cc1)c1ccc(Br)cc1 (centres unmarked) [Compound 37]	17 ± 3 µM			> 100	> 100	3.13 (≈ 1.68 µg/mL)	454 µM	too high to conclude a specific binding
CCN1C(=O)C(O)=C(C(=O)c2ccc(Br)cc2)C1c1ccc(Cl)cc1 (centres unmarked) [Compound 33]	> 100 µM	>100	>100	> 100	> 100	> 100		
O=C(C1=C(O)C(=O)N(Cc2nc3ccccc3[nH]2)C1c1ccc(Cl)cc1)c1ccc(Br)cc1 (centres unmarked) [Compound 38]	117 ± 4 µM	>100	>100	> 100	> 100	> 100	62.7 µM	
O=C(C1=C(O)C(=O)N(Cc2cc3cc(Cl)ccc3[nH]2)C1c1ccc(Cl)cc1)c1ccc(Br)cc1 (centres unmarked) [Compound 35]	2 µM and 0.6 µM			> 100	> 100	6.25 (≈ 3.48 µg/mL)	9.8 µM and 9.82 µM	
